Reference: patent publication US9393324B2, “Use of 31P NMR spectroscopy of whole heart energetics for detection of drug-induced cardiotoxicity” (Battelle Memorial Institute, priority 2012, dated 2016)
Entries after “also recorded” stand apart in the source; their conditions may differ. Where two headings read alike, the source gives them in different places.

How the values were obtained:
isolated rat heart [1] = tested on: isolated rat heart
Excerpt: Applying this approach, a perfused isolated heart may be inserted into an 11.5 tesla NMR magnet for spectroscopic analysis of high-energy phosphagens (ATP, phosphocreatine, and inorganic phosphate) in combination with collection of heart effluent and tissue, and functional assessment of contractility can be determined as measured by dP/dtmax and dP/dtmin, left ventricular developed pressure, heart rate, etc.
(§1) A heart, in this case isolated from rat and perfused using the Langendorff method, is image guided by 1 H magnetic resonance imaging and magnetic resonance spectroscopy is performed for ^31P found in the high energy phosphogens ATP, phosphocreatine (PCr), and inorganic phosphate (Pi) in an upright 11.7 Tesla NMR at 161.99 MHz (FIGS. 1 and 2).
(§2) The energetic spectra from the whole heart was averaged every 4 minutes before and after drug exposure. PCr, ATP alpha, beta, and gamma, and Pi peak height and area, and pH calculated from the resonance shift in Pi (pHi=pK+log [(go−gB)/gA−go)] […] Heart contractility (left ventricular pressure) and heart rate is simultaneously acquired on an Emka IOX data acquisition system.
^31P spectra is acquired for 20 minutes prior to drug application. The drug of interest is then applied for 1 hour followed by a 20 minute stress test using 0.1 um isoproteranol (a beta agonist) in the presence of the drug which causes increased contractility, relaxation, heart rate, and increased conduction velocity. This step is done to test the energy reserve of the heart after drug application. […] As a positive control, we use FCCP, a mitochondrial uncoupler that inhibits mitochondrial oxidative phosphorylation by disrupting the mitochondrial protein gradient.

isolated rat heart [2] = tested on: isolated rat heart; remark: listed apart in the source
Description: In combination with the functional assessment, whole heart energetics can be determined, measured as the changes in peak levels of ATP, phosphocreatine, and inorganic phosphate using NMR spectroscopy.
as §1, §2
^31P spectra is acquired for 20 minutes prior to drug application. The drug of interest is then applied for 1 hour followed by a 20 minute stress test using 0.1 um isoproteranol (a beta agonist) in the presence of the drug which causes increased contractility, relaxation, heart rate, and increased conduction velocity. This step is done to test the energy reserve of the heart after drug application.

[3] = drug applied for 1 hour, before stress test
[4] = during 20 minute stress test, 0.1 um isoproteranol in the presence of the drug

Row | contractility (isolated rat heart [1]; doxorubicin 1 and 10 uM) | ATP (isolated rat heart [2]; doxorubicin 1 and 10 uM) | PCr (isolated rat heart [2]; doxorubicin 1 and 10 uM) | Pi (inorganic phosphate) (isolated rat heart [2]; doxorubicin 1 and 10 uM) | effects on contractility and energetic parameters in the stress test period (isolated rat heart [2]; doxorubicin 1 and 10 uM, isoproteranol stress test period) | phosphocreatine (isolated rat heart [2]; stress test with isoproteranol, versus control hearts) | Molecule | contractility (dP/dtmax) (isolated rat heart [1]; [3]) | contractility (isolated rat heart [1]; [4]) | ATPγ peak (isolated rat heart [2]; [3]) | PCr peak (isolated rat heart [2]; [3]) | Pi peak (isolated rat heart [2]; [3]) | ATPγ peak (isolated rat heart [2]; [4]) | PCr peak (isolated rat heart [2]; [4]) | Pi peak (isolated rat heart [2]; [4])
1 | increases; also recorded: increasing | decreases | decreases | decreases | pronounced | pronounced drop | COc1cccc2c1C(=O)c1c(O)c3c(c(O)c1C2=O)C[C@@](O)(C(=O)CO)C[C@@H]3O[C@H]1C[C@H](N)[C@H](O)[C@H](C)O1 [doxorubicin] |  |  |  |  |  |  |  | 
2 |  |  |  |  |  |  | carbony cyanide 4-(trifluoromethoxy) phenylhydrazone [FCCP] | declines | increased slightly | declines | declines | did not affect | declined further | dropped slightly | no effect
